Experimental data from patent publication US20140357706A1, “Stearate Compounds” (THE UAB RESEARCH FOUNDATION, priority 2011, published 2014).

Experiments:
Rho = Rho activation assay in Hs578T cells; assay type: cell-based, human; conditions: all time points, especially 16 and 24 h post-EGF stimulation; vs controls
Procedure: The concentration of stearate used to treat the Hs578T cells was 50 μM. When EGF was used, the concentration was 1 nM EGF. Before the treatment with stearate or EGF, cells were first starved for 24-48 hours. Stearate was loaded onto fatty acid-free bovine serum albumin (BSA) according to the method reported by Spector et al. (13); briefly, stearate (0.5 g) was dissolved in chloroform (100 ml) and mixed well with 10 g diatomaceous earth in a 1 liter flask. The mixture was stirred and dried under nitrogen until powder. BSA is a physiological carrier of fatty acids and was used to avoid the introduction of organic solvents to solutions coming into contact with cells. Fatty acid-free BSA (1 g) was dissolved in 100 ml with Dulbecco's modified Eagle's medium without phenol red and mixed with 3 g of the stearate/diatomaceous earth mixture with stirring for 45 min. The stearate/BSA solution was filtered through a 0.45 μm filter, and adjusted to pH 7.4. The concentration of stearate in the solution was detected with the NEFA C Kit from Wako Chemicals GmbH (Neuss, Germany). […]
Ras and Rho activation assay kits were purchased from Millipore (Billerica, Mass.). […] The beads were washed three times with lysis buffer B. Bound Ras-GTP and Rho-GTP proteins were detected by immunoblot using Ras and Rho antibodies.

3T3L1 cells = assay: 3T3L1 cell differentiation (oil red O staining); assay type: cell-based, mouse; conditions: 50 μM during differentiation
Procedure: 3T3L1 mouse fibroblast cells (ATCC, CL-173™) were maintained according to the manufacture's protocol, in Dulbecco's modified eagle's medium (DMEM) containing 10% Fetal Bovine Serum and antibiotics (M1 medium). Adipocyte differentiation was performed according to standard procedures (42). Briefly, the 3T3L1 fibroblasts were seeded at 30% confluence and allowed to grow to near 100% confluence. On the day after reaching maximum confluence, conversion was induced by replacing the M1 medium with M1 medium containing insulin (5 μg/ml), dexamethasone (0.25 μM), and 3-isobutyl-1-methyl-xanthine (0.5 mM). After 2 days, the cells were changed to M1 medium with insulin (5 μg/ml) for an additional 2 days. […]
50 μM of stearate, oleate or linoleate was used to treat 3T3L1 cells as this concentration is centered within the normal range for non-esterified stearate in the plasma of humans. […] The concentration of stearate in the solution was detected by use of a NEFA C kit. […]
Cellular lipids were stained with oil red O. Briefly, identical numbers of 3T3L1 cells were placed in 6-well plates, cultured and converted to adipocytes as described above. […] 200 cells were counted under the microscope in each sample, and the percentage of converted adipocytes was calculated. […] The oil red O was then eluted with 1 ml 100% isopropanol, and the OD was measured at 520 nm in a spectrophotometer.

[1] = tested on: human ovarian granulosa cells; conditions: 50 μM for 3 days; cited from earlier work

With `CCCCCCCCCCCCCCCCCC(=O)O` [stearate, Stearic acid] the Rho-GTP (Rho) was “decreased”, the “Oil red O eluted, OD value” (3T3L1 cells) was “no difference” and the “Percentage of differentiated adipocytes” value (3T3L1 cells; vs control) was “no significant difference”. The Cell viability [1] was “no decrease”.
